Source: US5273991A, “Imidazole-containing compositions and methods of use thereof analogs of distamycin” (Research Corporation Technologies, Inc., priority 1992, dated 1993)

Experiments:
Type in all cases: binding
poly(dA.dT) = assay: circular dichroism (CD) titration, poly(dA.dT); conditions: for CD titration result in words: r' up to ~1.0
Method: (§1) The DNA binding properties of the present compounds were assessed by circular dichroism (CD) titration experiments. Methods for CD titration can be found, for example, in Zimmer et al. (1986) Prog. Biophys. Molec. Biol 47, 31. The conformation of DNA can be readily determined by CD experiments, and for B-DNA, characteristic positive and negative Cotton effects are observed at 260 and 245 nm, respectively.
(§2) The interaction of Compounds 6-10 to a number of DNAs [calf thymus, poly(dA dT) and poly(dG dC)] were analyzed by CD titration studies. All the CD titration experiments were performed using identical procedures, concentrations of DNA, and increments of drug:DNA ratios (or `r`, i.e. moles of drug to moles of DNA base pairs). Therefore, the differences observed in the CD spectra for the titration of each of the compounds to the polydeoxynucleotides may be directly compared to reflect their DNA binding properties.
All experiments were performed with a continuous flow of nitrogen purging the polarimeter. A 1 mm path length jacketed cell was used and all experiments were done at room temperature. Initially, DNA [0.02 μ moles (base pairs), 130 μL] was placed in the cell and the spectrum of the DNA alone was collected. Aliquots of drug were added and the spectra collected. […] The scan parameters were set and standard for all experiments. The spectra were collected from 400 nm to 200 nm. The sensitivity was set at 1 mdeg and the scan speed was set at 20 nm per minute. Three scans were accumulated and automatically averaged by the computer. The λmax and ellipticity (mdeg) for each spectrum were collected from the raw scans and the final plots were smoothed by the noise reduction program on the computer. […] The induced CD band is presumably due to the uv absorption π to π^* transition of the drug in the drug:DNA complex. […] Therefore interaction of these drugs with DNA causes only minor conformational changes in the double helix.

calf thymus DNA = assay: ethidium displacement assay, calf thymus DNA; conditions: ± 0.02 × 10^5 M^-1, pH 7.4
Description: (§3) The ethidium displacement assay is based on the fact that ethidium binding to DNA causes a large (approximately 25 fold) florescence enhancement as a result of the hydrophobic environment surrounding the ethidium molecule. Displacement of ethidium results in decreased fluorescence, and thus binding constants of drugs to DNA can be estimated and compared by measuring the loss of fluorescence as a function of added drug. The drug concentration which produces 50% inhibition of florescence is approximately inversely proportional to the apparent binding constant.
(§4) The relative DNA binding constants (Kapp) of distamycin and Compounds 6-10 to calf thymus DNA, T4 coliphage DNA, poly(dAdT) and poly(dGdC) were determined using the ethidium displacement assay (Morgan et al., 1979). The Kapp of ethidium bromide (Debart et al., 1989) is included for comparison. 25 μL of a 2A260 DNA solution was added to 2 mL of ethidium bromide buffer (250 μL of 1.3 mM ethidium bromidestock, 314.9 mg Tris-HCl, 60.8 mg Tris base and 930/mg of Na2 EDTA.2H2 O in 250 ml H2 O) pH 7.4 and the maximum fluorescence was measured (excitation wavelength=546 nm, emission wavelength=600 nm) at ambient temperature.
(§5) DNA solutions of 2A260 were prepared as follows: T4 coliphage DNA: 10 units of DNA were dissolved in 1 mL of 10 mM sodium phosphate (pH 7.1) and 0.25 mM EDTA buffer to give a 10A260 solution. 0.3 mL of the stock solution were diluted to 1.5 mL with 10 mM sodium phosphate (pH 7.1) and 0.25 mM EDTA buffer to give a 2A260 solution. Calf thymus DNA: 100 units of DNA were dissolved in 5 mL of 10 mM sodium phosphate (pH 7.1) and 0.25 mM EDTA buffer to give a 20A260 solution. 1.5 mL of the stock solution were diluted to 15 mL with 10 mM sodium phosphate (pH 7.1) and 0.25 mM EDTA buffer to give a 2A260 solution. Poly(dA-dT) and Poly(dG-dC) DNA: 100 units of DNA were dissolved in 10 mL of 10 mM sodium phosphate pH 7.1) and 0.25 mM EDTA buffer to give a 10A260 solution. 3 mL of the stock solution were diluted to 15 mL with 10 mM sodium phosphate (pH 7.1) and 0.25 mM EDTA buffer to give a 2A260 solution.
(§6) Aliquots of 10 mM stock drug solution (1 mg of drug to be tested was dissolved with 1 mole equivalent of 0.1M HCl, and then diluted with appropriate volume of distilled water to make a 10 mM solution) were then added to the fluorescing solution and the florescence measured after each addition until a 50% reduction of fluorescence occurred. If the 10 mM stock solution lowered the % fluorescence too quickly, the stock solution was further diluted to 1 mM prior to titration. The apparent binding constant was then calculated from this equation: KEtBr [EtBr]=Kapp [drug], where [drug]=the concentration of drug at a 50% reduction of fluorescence and KEtBr [1×10^7 M^-1 for calf thymus and coliphage T4 DNA^18, 9.5×10^6 M^-1 for poly(dA.dT)^30, and 9.9×10^6 M^-1 for poly(dG.dC)^30 ] and [EtBr] were known. The concentration of ethidium bromide was 1.3 μM. The Kapp values are shown in Table I. In a separate experiment, the Kapp of Compound 5 for calf thymus DNA and poly[dGdC] were determined to be 0.3×10^5 M^-1 and 2.6×10^5 M^-1, respectively. The error in these measurements is ±[…].

poly(dAdT) = assay: ethidium displacement assay, poly(dAdT); conditions: ± 0.02 × 10^5 M^-1, pH 7.4
Description: as §3, §4, §5, §6

[1] = system: DNAs [calf thymus, poly(dA dT) and poly(dG dC)]; assay: circular dichroism (CD) titration, DNAs together; conditions: for drug-induced CD bands, wavelength: drugs alone do not exhibit any CD spectra
Method: as §1, §2
All experiments were performed with a continuous flow of nitrogen purging the polarimeter. A 1 mm path length jacketed cell was used and all experiments were done at room temperature. Initially, DNA [0.02 μ moles (base pairs), 130 μL] was placed in the cell and the spectrum of the DNA alone was collected. Aliquots of drug were added and the spectra collected. The drug solutions were 1 mM and amounts of the drug added correspond to a drug to base pair ratio of 0.05, 0.10, 0.15, 0.20, 0.25, 0.30, 0.40, 0.50, 0.60, 0.80, 1.00. The scan parameters were set and standard for all experiments. The spectra were collected from 400 nm to 200 nm. The sensitivity was set at 1 mdeg and the scan speed was set at 20 nm per minute. Three scans were accumulated and automatically averaged by the computer. The λmax and ellipticity (mdeg) for each spectrum were collected from the raw scans and the final plots were smoothed by the noise reduction program on the computer. […] The induced CD band is presumably due to the uv absorption π to π^* transition of the drug in the drug:DNA complex. […] Therefore interaction of these drugs with DNA causes only minor conformational changes in the double helix.

SMILES	induced negative CD band, ellipticity (poly(dA.dT); 310 nm, r'=0.2) [mdeg]	induced positive CD band, ellipticity (poly(dA.dT); 350 nm, r'=0.2) [mdeg]	isobestic point (poly(dA.dT); poly(dA.dT)) [nm]	Association constant Kapp (calf thymus DNA) [M⁻¹]	Association constant Kapp (poly(dAdT)) [M⁻¹]	drug-induced CD bands, wavelength [1]	CD titration result in words (poly(dA.dT))	CD titration result in words ([1]; three polydeoxyribonucleotides, r' up to 0.8)	negative Cotton effect band, ellipticity (poly(dA.dT); 315 nm, equimolar titration) [mdeg]	binding preference from CD titration ([1]; induced band for poly(dG.dC) vs poly(dA.dT))
CN(C)CCNC(=O)c1nc(NC(=O)c2nc(NC(=O)c3ccc(N(CCCl)CCCl)cc3)cn2C)cn1C [Compound 6, N-(N',N'-dimethylaminoethyl)-1-methyl-4-{4-[4,4-bis(2-chloroethyl)aminobenzamido]-1-methylimidazole-2-carboxamido}imidazole-2-carboxamide]	0.4	1.8	315	456000	475000	290-340 nm	–	–	–	–
CN(C)CCNC(=O)c1nc(NC(=O)c2nc(NC(=O)c3nc(NC(=O)c4ccc(N(CCCl)CCCl)cc4)cn3C)cn2C)cn1C [Compound 7, N-(N',N'-dimethylaminoethyl)-1-methyl-4-{1-methyl-4-[4-(4,4-bis-(2-chloroethyl)aminobenzamido)-1-methylimidazole-2-carboxamido]imidazole-2-carboxamido}imidazole-2-carboxamide]	–	–	–	591000	950000	290-340 nm	minor changes in the CD spectrum	–	–	–
CN(C)CCNC(=O)c1nc(NC(=O)c2nc(NC(=O)c3nc(NCc4ccc(N(CCCl)CCCl)cc4)cn3C)cn2C)cn1C [Compound 8, N-(N',N'-dimethylaminoethyl)-1-methyl-4-{1-methyl-4-[4-(4,4-bis-(2-chloroethyl)aminobenzylamino)-1-methylimidazole-2-carboxamido]imidazole-2-carboxamido}imidazole-2-carboxamide]	–	–	–	473000	457000	–	did not produce any changes in the CD spectrum	–	–	–
CN(C)CCNC(=O)c1nc(NC(=O)c2nc(NC(=O)CCCc3ccc(N(CCCl)CCCl)cc3)cn2C)cn1C [Compound 9, N-(N',N'-dimethylaminoethyl)-1-methyl-4-{4-[4,4-bis(2-chloroethyl)aminophenyl-1-butanamido]-1-methylimidazole-2-carboxamido}imidazole-2-carboxamide]	–	–	–	64000	54000	–	–	did not produce any notable changes in the CD spectra	–	–
CN(C)CCNC(=O)c1nc(NC(=O)c2nc(NC(=O)c3nc(NC(=O)CCCc4ccc(N(CCCl)CCCl)cc4)cn3C)cn2C)cn1C [Compound 10, N-(N',N'-dimethylaminoethyl)-1-methyl-4-{1-methyl-4-[4-(4,4-bis(2-chloroethyl)aminophenyl-1-butanamido)-1-methylimidazole-2-carboxamido]imidazole-2-carboxamido}imidazole-2-carboxamide]	–	–	–	22000	13000	–	–	–	-0.8	binds more strongly to GC rich sequences of DNA
